Experimental data reported in ChEMBL document CHEMBL5576135, “Discovery of Indolo[3,2-c]isoquinoline Derivatives as Novel Top1/2 Dual Inhibitors with Orally Efficacious Antitumor Activity and Low Toxicity” (J Med Chem, 2024).
The source made the active and inactive calls. The calls are words filed in the database; no cut-off is given here.

How the values were obtained:
MDA-MB-231 = assay: Antiproliferative activity against human MDA-MB-231 cells assessed as inhibition of cell growth incubated for 96 hrs by MTT based ELISA; type: functional; details: MDA-MB-231, 96 h
NCI-H2228 = assay: Antiproliferative activity against human NCI-H2228 cells assessed as inhibition of cell growth incubated for 96 hrs by MTT based ELISA; type: functional; details: NCI-H2228, 96 h
Huh-7 = assay: Antiproliferative activity against human Huh-7 cells assessed as inhibition of cell growth incubated for 96 hrs by MTT based ELISA; type: functional; details: Huh-7, 96 h
PC-9 = assay: Antiproliferative activity against human PC-9 cells assessed as inhibition of cell growth incubated for 96 hrs by MTT based ELISA; type: functional; details: PC-9, 96 h
DU-145 = assay: Antiproliferative activity against human DU-145 cells assessed as inhibition of cell growth incubated for 96 hrs by MTT based ELISA; type: functional; details: DU-145, 96 h
[1] = Half life in ICR mouse at 10 mg/kg,po measured upto 24 hrs by LC-MS/MS analysis; type: ADME, organism-based; details: in vivo
[2] = Tmax in ICR mouse at 10 mg/kg,po measured upto 24 hrs by LC-MS/MS analysis; type: ADME, organism-based; details: in vivo
[3] = Cmax in ICR mouse at 10 mg/kg,po measured upto 24 hrs by LC-MS/MS analysis; type: ADME, organism-based; details: in vivo
[4] = AUC (0 to infinity) in ICR mouse at 10 mg/kg,po measured upto 24 hrs by LC-MS/MS analysis; type: ADME, organism-based; details: in vivo
[5] = target: DNA topoisomerase 2-alpha (Homo sapiens) (UniProt P11388); assay: Inhibition of Topoisomerase 2 (unknown origin) using pBR322 DNA as substrate at 100 uM incubated for 15 mins by EtBr staining based agarose gel electrophoresis method relative to control
[6] = target: DNA topoisomerase 2-alpha (Homo sapiens) (UniProt P11388); assay: Inhibition of Topoisomerase 2 (unknown origin) using pBR322 DNA as substrate at 50 uM incubated for 15 mins by EtBr staining based agarose gel electrophoresis method
NCI-H446 [7] = assay: Induction of DNA damage in human NCI-H446 cells assessed as increase in DNA fragments at 8 uM incubated for 48 hrs by comet assay; type: functional, cell-based
NCI-H446 [8] = assay: Induction of DNA damage in human NCI-H446 cells assessed as increase in intracellular gamma-H2AX level at 2 to 8 uM incubated for 48 hrs by Western blotting analysis; type: functional, cell-based; details: dose 2-8 µM
NCI-H446 [9] = assay: Induction of cell cycle arrest in human NCI-H446 cells assessed as accumulation of cells at S phase at 1 to 2 uM incubated for 48 hrs by propidium iodide/RNase A staining based flow cytometry; type: functional; details: dose 1-2 µM
NCI-H446 [10] = assay: Induction of cell cycle arrest in human NCI-H446 cells assessed as accumulation of cells at S phase at 2 uM incubated for 48 hrs by propidium iodide/RNase A staining based flow cytometry relative to control; type: functional
NCI-H446 [11] = assay: Induction of cell cycle arrest in human NCI-H446 cells assessed as accumulation of cells at G2/M phase at 2 uM incubated for 48 hrs by propidium iodide/RNase A staining based flow cytometry relative to control; type: functional
Cell membrane = assay: Induction of mitochondrial membrane potential loss in human NCI-H446 cells at 8 uM incubated for 24 hrs by JC-1 staining based flow cytometry; type: cell membranes
[12] = Toxicity in Kunming mouse assessed as change in serum AST level at 100 mg/kg,po administration for 2 weeks; type: organism-based; details: in vivo, 336 h
[13] = Toxicity in Kunming mouse assessed as change in serum blood urea nitrogen level at 100 mg/kg,po administration for 2 weeks; type: organism-based; details: in vivo, 336 h
[14] = Toxicity in Kunming mouse assessed as morphological change in heart at 100 mg/kg,po administration for 2 weeks; type: organism-based; details: in vivo, 336 h
[15] = Toxicity in Kunming mouse assessed as morphological change in lung at 100 mg/kg,po administration for 2 weeks; type: organism-based; details: in vivo, 336 h
[16] = Toxicity in Kunming mouse assessed as morphological change in liver at 100 mg/kg,po administration for 2 weeks; type: organism-based; details: in vivo, 336 h
[17] = Toxicity in Kunming mouse assessed as change in organ coefficient of heart at 100 mg/kg,po administration for 2 weeks; type: organism-based; details: in vivo, 336 h
NCI-H446 [18] = assay: Antitumor activity against human NCI-H446 cells xenografted with BALB/c mouse assessed as tumor growth inhibition at 50 mg/kg,po administrated once daily for 21 days relative to control; type: functional; details: NCI-H446, 504 h, time 21 day, read-out: TGI
NCI-H446 [19] = assay: Antitumor activity against human NCI-H446 cells xenografted with BALB/c mouse assessed as tumor growth inhibition at 100 mg/kg,po administrated once daily for 21 days relative to control; type: functional; details: NCI-H446, 504 h, time 21 day, read-out: TGI
HCT-116 [20] = assay: Antitumor activity against human HCT-116 cells xenografted with BALB/c mouse assessed as tumor growth inhibition at 50 mg/kg,po administrated once daily for 21 days relative to control; type: functional; details: HCT-116, 504 h, time 21 day, read-out: TGI
HCT-116 [21] = assay: Antitumor activity against human HCT-116 cells xenografted with BALB/c mouse assessed as tumor growth inhibition by measuring T/C ratio at 50 mg/kg,po administrated once daily for 21 days; type: functional; details: time 21 day
HCT-116 [22] = assay: Antitumor activity against human HCT-116 cells xenografted with BALB/c mouse assessed as tumor growth inhibition by measuring T/C ratio at 100 mg/kg,po administrated once daily for 21 days; type: functional; details: time 21 day
[23] = target: DNA topoisomerase 2-alpha (Homo sapiens) (UniProt P11388); assay: Inhibition of Topoisomerase 2 (unknown origin) using pBR322 DNA as substrate at 10 uM incubated for 15 mins by EtBr staining based agarose gel electrophoresis method

DNA topoisomerase 2-alpha (Homo sapiens), sequence (P11388 whole entry, the tested form may be a part): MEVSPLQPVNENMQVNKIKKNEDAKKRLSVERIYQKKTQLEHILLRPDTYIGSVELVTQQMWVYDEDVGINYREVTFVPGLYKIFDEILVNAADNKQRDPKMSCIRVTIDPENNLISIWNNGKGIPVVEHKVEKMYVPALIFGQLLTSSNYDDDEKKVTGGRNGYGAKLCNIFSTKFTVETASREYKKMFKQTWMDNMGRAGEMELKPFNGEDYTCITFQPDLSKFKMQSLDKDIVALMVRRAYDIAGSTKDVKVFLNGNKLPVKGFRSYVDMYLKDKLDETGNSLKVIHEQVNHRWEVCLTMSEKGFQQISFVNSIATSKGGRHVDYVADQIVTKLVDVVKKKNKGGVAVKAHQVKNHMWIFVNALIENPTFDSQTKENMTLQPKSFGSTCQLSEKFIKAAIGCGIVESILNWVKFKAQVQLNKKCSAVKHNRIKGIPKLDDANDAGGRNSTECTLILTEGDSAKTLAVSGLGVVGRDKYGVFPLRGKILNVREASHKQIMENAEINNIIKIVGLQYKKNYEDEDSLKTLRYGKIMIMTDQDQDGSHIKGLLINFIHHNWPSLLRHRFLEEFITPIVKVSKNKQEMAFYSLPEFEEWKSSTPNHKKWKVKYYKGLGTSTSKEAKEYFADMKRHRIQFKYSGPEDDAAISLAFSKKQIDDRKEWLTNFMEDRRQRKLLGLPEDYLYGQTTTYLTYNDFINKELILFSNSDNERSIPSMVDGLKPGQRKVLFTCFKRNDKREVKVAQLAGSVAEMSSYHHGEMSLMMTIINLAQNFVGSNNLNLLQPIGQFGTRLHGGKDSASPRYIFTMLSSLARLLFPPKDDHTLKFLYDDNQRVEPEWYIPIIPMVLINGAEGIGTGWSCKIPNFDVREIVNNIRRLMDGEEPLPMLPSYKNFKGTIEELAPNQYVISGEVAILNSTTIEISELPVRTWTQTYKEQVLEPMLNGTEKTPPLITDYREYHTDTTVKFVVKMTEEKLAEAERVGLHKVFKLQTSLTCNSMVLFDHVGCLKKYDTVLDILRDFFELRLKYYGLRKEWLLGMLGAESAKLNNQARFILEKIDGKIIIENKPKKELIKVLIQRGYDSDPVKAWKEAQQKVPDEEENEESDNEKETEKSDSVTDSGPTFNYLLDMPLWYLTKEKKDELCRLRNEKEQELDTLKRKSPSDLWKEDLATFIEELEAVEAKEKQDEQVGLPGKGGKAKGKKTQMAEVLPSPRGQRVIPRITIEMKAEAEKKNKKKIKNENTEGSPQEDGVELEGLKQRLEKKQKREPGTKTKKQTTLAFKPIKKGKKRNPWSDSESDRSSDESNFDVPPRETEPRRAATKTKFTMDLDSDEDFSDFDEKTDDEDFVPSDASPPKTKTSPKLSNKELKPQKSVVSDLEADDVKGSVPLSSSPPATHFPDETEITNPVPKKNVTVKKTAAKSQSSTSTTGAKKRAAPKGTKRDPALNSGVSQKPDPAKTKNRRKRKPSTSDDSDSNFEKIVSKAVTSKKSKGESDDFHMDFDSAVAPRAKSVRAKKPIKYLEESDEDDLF

SMILES	IC50 (MDA-MB-231)	IC50 (NCI-H2228)	IC50 (Huh-7)	IC50 (PC-9)	IC50 (DU-145)	half-life [1]	Tmax [2]	Cmax [3]	AUC(0-inf) [4]	inhibition [5]	inhibition [6]	Activity (NCI-H446 [7])	Activity (NCI-H446 [8])	Activity (NCI-H446 [9])	Activity (NCI-H446 [10])	Activity (NCI-H446 [11])	Activity (Cell membrane)	Activity [12]	Activity [13]	Activity [14]	further results
CN(C)CCCn1c2cc3c(cc2c2ncc4ccccc4c21)OCO3	290 nM	880 nM	830 nM	760 nM	520 nM	1.66 h	2 h	284 ng/mL	2040 ng·h/mL	> 95%	Active	Active	Active	Active	61.1%	61.1%	Active	Non-Toxic	Non-Toxic	Non-Toxic	Activity [15]: Non-Toxic; Activity [16]: Non-Toxic; Activity [17]: Non-Toxic; inhibition in vivo at 50 mg/kg (NCI-H446 [18]): 49.2%; inhibition in vivo at 100 mg/kg (NCI-H446 [19]): 66.1%; inhibition in vivo at 50 mg/kg (HCT-116 [20]): 40.8%; T/C (HCT-116 [21]): 55%; T/C (HCT-116 [22]): 18%; inhibition [23]: Active
COc1ccc2c(c1)c1ncc3ccccc3c1n2CCCC(=O)NO	550 nM	2340 nM	2500 nM	1260 nM	860 nM	1.15 h	1 h	109 ng/mL	267 ng·h/mL	> 95%	Active	Active	Active	Active	60.3%	60.3%	Active	Non-Toxic	Non-Toxic	Non-Toxic	Activity [15]: Non-Toxic; Activity [16]: Non-Toxic; Activity [17]: Non-Toxic; inhibition [23]: Active
